# Active and inactive are the calls of the source. The rule behind the calls is not given here.
# Tests used:
# Escherichia coli [1] = assay: Antibiofilm activity against Escherichia coli ATCC 10536 assessed as formation of looser colonies at 1/2 times of MIC measured after 24 hrs by safranin staining based light microscopy; format: functional, organism-based
# Escherichia coli [2] = assay: Antibiofilm activity against Escherichia coli ATCC 10536 assessed as inhibition of biofilm biomass at 1/4 times of MIC measured after 24 hrs by safranin staining based spectrophotometer EIA reader analysis; format: functional
# Escherichia coli [3] = assay: Antibacterial activity against Escherichia coli ATCC 10536 assessed as bacterial growth inhibition measured after 24 hrs by CLSI based microdilution method; format: functional
# Pseudomonas aeruginosa [4] = assay: Antibacterial activity against ofloxacin resistant Pseudomonas aeruginosa 1 ocular isolate assessed as bacterial growth inhibition measured after 24 hrs by CLSI based microdilution method; format: functional
# Pseudomonas aeruginosa [5] = assay: Antibiofilm activity against Pseudomonas aeruginosa ATCC 9027 assessed as inhibition of biofilm biomass at 1/2 times of MIC measured after 24 hrs by safranin staining based spectrophotometer EIA reader analysis; format: functional
# Pseudomonas aeruginosa [6] = assay: Antibiofilm activity against Pseudomonas aeruginosa ATCC 9027 assessed as reduction in preformed bacterial biofilm at 18.8 microg/ml measured after 24 hrs by safranin staining based spectrophotometer EIA reader analysis; format: functional; parameters: scale not given: the % may be the effect or the level left; conditions: dose 18.8 µg/ml
# Escherichia coli [7] = assay: Bactericidal activity against Escherichia coli ATCC 10536 assessed as planktonic growth inhibition at 1/8 times of MIC measured after 24 hrs by spectrophotometer EIA reader analysis; format: functional
# Pseudomonas aeruginosa [8] = assay: Antibiofilm activity against ofloxacin resistant Pseudomonas aeruginosa 1 ocular isolate assessed as inhibition of biofilm biomass at 1/2 times of MIC measured after 24 hrs by safranin staining based spectrophotometer EIA reader analysis; format: functional
# Escherichia coli [9] = assay: Antibiofilm activity against Escherichia coli ATCC 10536 assessed as reduction in preformed bacterial biofilm at 150 microg/ml measured after 24 hrs by safranin staining based spectrophotometer EIA reader analysis; format: functional; parameters: scale not given: the % may be the effect or the level left; conditions: dose 150 µg/ml
# Escherichia coli [10] = assay: Antibiofilm activity against Escherichia coli ATCC 10536 assessed as inhibition of biofilm formation at 1/2 times of MIC measured after 24 hrs by safranin staining based light microscopy; format: functional, organism-based
# Escherichia coli [11] = assay: Effect on swarming capacity of Escherichia coli ATCC 10536 assessed as reduction of motility zone at 1/2 times of MIC incubated for 24 hrs; format: functional; parameters: scale not given: the % may be the effect or the level left
# Escherichia coli [12] = assay: Antibiofilm activity against Escherichia coli ATCC 10536 assessed as inhibition of biofilm formation at 1/4 times of MIC measured after 24 hrs by safranin staining based light microscopy; format: functional, organism-based
# Pseudomonas aeruginosa [13] = assay: Bactericidal activity against ofloxacin resistant Pseudomonas aeruginosa 1 ocular isolate assessed as bacterial growth inhibition measured after 24 to 48 hrs by CLSI based microdilution method; format: functional; conditions: time 24-48 hrs
# Pseudomonas aeruginosa [14] = assay: Antibiofilm activity against Pseudomonas aeruginosa ATCC 9027 assessed as reduction in preformed bacterial biofilm at 75 microg/ml measured after 24 hrs by safranin staining based spectrophotometer EIA reader analysis; format: functional; parameters: scale not given: the % may be the effect or the level left; conditions: dose 75 µg/ml
# Pseudomonas aeruginosa [15] = assay: Antibacterial activity against Pseudomonas aeruginosa DSM 102273 assessed as bacterial growth inhibition measured after 24 hrs by CLSI based microdilution method; format: functional
# Pseudomonas aeruginosa [16] = assay: Effect on twitching capacity of ofloxacin resistant Pseudomonas aeruginosa 1 ocular isolate assessed as reduction of motility zone at 1/2 times of MIC incubated for 24 hrs; format: functional; parameters: scale not given: the % may be the effect or the level left
# Escherichia coli [17] = assay: Bactericidal activity against Escherichia coli ATCC 10536 assessed as bacterial growth inhibition measured after 24 to 48 hrs by CLSI based microdilution method; format: functional; conditions: time 24-48 hrs
# Cell membrane [18] = assay: Induction of outer membrane permeabilization in Pseudomonas aeruginosa ATCC 9027 assessed as crystal violet uptake at MIC incubated for 60 mins by crystal violet staining based UV-VIS spectrophotometer ( Rvb = 53%)
# Escherichia coli [19] = assay: Antibiofilm activity against Escherichia coli ATCC 10536 assessed as inhibition of biofilm biomass at 1/2 times of MIC measured after 24 hrs by safranin staining based spectrophotometer EIA reader analysis; format: functional
# Pseudomonas aeruginosa [20] = assay: Antibacterial activity against Pseudomonas aeruginosa ATCC 9027 assessed as bacterial growth inhibition measured after 24 hrs by CLSI based microdilution method; format: functional
# Pseudomonas aeruginosa [21] = assay: Effect on swarming capacity of Pseudomonas aeruginosa ATCC 9027 assessed as reduction of motility zone at 1/2 times of MIC incubated for 24 hrs; format: functional; parameters: scale not given: the % may be the effect or the level left
# Pseudomonas aeruginosa [22] = assay: Effect on twitching capacity of Pseudomonas aeruginosa ATCC 9027 assessed as reduction of motility zone at 1/2 times of MIC incubated for 24 hrs; format: functional; parameters: scale not given: the % may be the effect or the level left
# Cell membrane [23] = assay: Induction of outer membrane permeabilization in Escherichia coli ATCC 10536 assessed as crystal violet uptake at MIC incubated for 60 mins by crystal violet staining based UV-VIS spectrophotometer ( Rvb = 56%)
# Escherichia coli [24] = assay: Effect on twitching capacity of Escherichia coli ATCC 10536 assessed as reduction of motility zone at 1/2 times of MIC incubated for 24 hrs; format: functional; parameters: scale not given: the % may be the effect or the level left
# Pseudomonas aeruginosa [25] = assay: Bactericidal activity against Pseudomonas aeruginosa ATCC 9027 assessed as bacterial growth inhibition measured after 24 to 48 hrs by CLSI based microdilution method; format: functional; conditions: time 24-48 hrs
# Escherichia coli [26] = assay: Antibiofilm activity against Escherichia coli ATCC 10536 assessed as inhibition of biofilm biomass at 1/8 times of MIC measured after 24 hrs by safranin staining based spectrophotometer EIA reader analysis; format: functional
# Pseudomonas aeruginosa [27] = assay: Bactericidal activity against Pseudomonas aeruginosa DSM 102273 assessed as bacterial growth inhibition measured after 24 to 48 hrs by CLSI based microdilution method; format: functional; conditions: time 24-48 hrs
# Escherichia coli [28] = assay: Antibiofilm activity against Escherichia coli ATCC 10536 assessed as formation of looser colonies at 1/4 times of MIC measured after 24 hrs by safranin staining based light microscopy; format: functional, organism-based
# Escherichia coli [29] = assay: Bactericidal activity against Escherichia coli ATCC 10536 assessed as planktonic growth inhibition at 1/4 times of MIC measured after 24 hrs by spectrophotometer EIA reader analysis; format: functional
# Pseudomonas aeruginosa [30] = assay: Antibiofilm activity against Pseudomonas aeruginosa ATCC 9027 assessed as reduction in preformed bacterial biofilm at 37.6 microg/ml measured after 24 hrs by safranin staining based spectrophotometer EIA reader analysis; format: functional; parameters: scale not given: the % may be the effect or the level left; conditions: dose 37.6 µg/ml
compound,measurement,setting,value
CCCCCCCCCCCCOc1c2cc(C[N+](C)(C)CCO)cc1Cc1cc(C[N+](C)(C)CCO)cc(c1OCCCCCCCCCCCC)Cc1cc(C[N+](C)(C)CCO)cc(c1OCCCCCCCCCCCC)Cc1cc(C[N+](C)(C)CCO)cc(c1OCCCCCCCCCCCC)C2.[Cl-].[Cl-].[Cl-].[Cl-],Activity,Escherichia coli [1],Active
same,inhibition (INH),Escherichia coli [2],77.6%
same,MIC,Escherichia coli [3],18.8 µg/mL
same,MIC,Pseudomonas aeruginosa [4],9.4 µg/mL
same,inhibition (INH),Pseudomonas aeruginosa [5],40%
same,Activity,Pseudomonas aeruginosa [6],37%
same,inhibition (INH),Escherichia coli [7],1.8%
same,inhibition (INH),Pseudomonas aeruginosa [8],40%
same,Activity,Escherichia coli [9],66.5%
same,Activity,Escherichia coli [10],Active
same,Activity,Escherichia coli [11],50%
same,Activity,Escherichia coli [12],Active
same,MBC,Pseudomonas aeruginosa [13],18.8 µg/mL
same,Activity,Pseudomonas aeruginosa [14],58%
same,MIC,Pseudomonas aeruginosa [15],18.8 µg/mL
same,Activity,Pseudomonas aeruginosa [16],50%
same,MBC,Escherichia coli [17],18.8 µg/mL
same,Activity,Cell membrane [18],71.6%
same,inhibition (INH),Escherichia coli [19],90.4%
same,MIC,Pseudomonas aeruginosa [20],9.4 µg/mL
same,Activity,Pseudomonas aeruginosa [21],50%
same,Activity,Pseudomonas aeruginosa [22],50%
same,Activity,Cell membrane [23],78.8%
same,Activity,Escherichia coli [24],50%
same,MBC,Pseudomonas aeruginosa [25],18.8 µg/mL
same,inhibition (INH),Escherichia coli [26],51%
same,MBC,Pseudomonas aeruginosa [27],18.8 µg/mL
same,Activity,Escherichia coli [28],Active
same,inhibition (INH),Escherichia coli [29],14.5%
same,Activity,Pseudomonas aeruginosa [30],37%

# From ChEMBL document CHEMBL5131555, “Antibacterial Nanoassembled Calix[4]arene Exposing Choline Units Inhibits Biofilm and Motility of Gram Negative Bacteria” (2022)
